Laboratory results reported in ChEMBL document CHEMBL3400014, “Cytotoxic acyl amides from the soil fungus Gymnascella dankaliensis” (Bioorg Med Chem, 2015).
Calls of active or inactive are those of the source. No cut-off for these calls is given here.

Test system: L5178Y
Assay: Cytotoxicity against mouse L5178Y cells by MTT assay
Assay type: functional, cell-based

| Compound | Activity | IC50 [µM] |
| --- | --- | --- |
| CC(/C=C/C(=O)NC(CO)Cc1ccc(O)cc1)=C\C(C)CC(=O)O (mixture of isomers) | inactive | – |
| CCCCCC[C@@H](C)/C=C(C)/C=C/C(=O)N[C@H]1C[C@]2(OC1O)[C@@H]1O[C@@H]1C(=O)[C@@H]1O[C@@H]12 (some centres not stated) | – | 0.58 |
| CCCCCC[C@@H](C)/C=C(C)/C=C/C(=O)N[C@H]1C[C@]2(C=C(Cl)C(=O)[C@H](Cl)[C@H]2O)O[C@H]1OC | – | 5.8 |
| CC(/C=C/C(N)=O)=C\[C@H](C)CC(=O)O | inactive | – |
| CC(/C=C/C(=O)NC(Cc1ccc(O)cc1)C(=O)O)=C\[C@H](C)CCCCCC(=O)O (mixture of isomers) | inactive | – |
| CCCCCC[C@@H](C)/C=C(C)/C=C/C(=O)N[C@H]1C[C@]2(O[C@H]1OC)[C@@H]1O[C@@H]1C(=O)[C@@H]1O[C@@H]12 | – | 0.44 |
| CC(/C=C/C(=O)NC(Cc1ccc(O)cc1)C(=O)O)=C\[C@H](C)CC(=O)O (mixture of isomers) | inactive | – |
| CCCCCC[C@@H](C)/C=C(C)/C=C/C(=O)N[C@H]1C[C@]2(OC1O)[C@@H]1O[C@@H]1C(O)(CC(C)=O)[C@@H]1O[C@@H]12 (some centres not stated) | inactive | – |
| CCCCCC[C@@H](C)/C=C(C)/C=C/C(=O)N[C@H]1CC2(C=C(Cl)C(=O)C(Cl)=C2)OC1O (some centres not stated) | – | 0.64 |
| CC(/C=C/C(=O)NC(Cc1ccc(O)cc1)C(=O)O)=C\[C@H](C)CCCCCCO (mixture of isomers) | inactive | – |
| CCCCCC[C@@H](C)/C=C(C)/C=C/C(=O)N[C@H]1C[C@]2(OC1O)[C@@H]1O[C@@H]1C(O)[C@@H]1O[C@@H]12 (some centres not stated) | inactive | – |
| CCCCCC[C@@H](C)/C=C(C)/C=C/C(N)=O | inactive | – |
